System: rabbit blood clots
Test: In vitro sonothrombolysis of rabbit blood clots in a Mylar flow chamber infused with serum
Details: CPDL 0.001% w/V added to the MB suspension, complete absence of tPA
Method: To assess the combined effect of ultrasound in combination with tPA, a tissue permeabilizer, and microbubbles (MBs) on the efficacy of sonothrombolysis, the following experiment was conducted. Sonothrombolysis was performed on rabbit blood clots situated in a Mylar flow chamber (37.0° C.) infused with serum. In addition, tPA was introduced into the flow chamber at several initial concentrations ranging from 0.0 mg/mL to 0.2 mg/mL. At each tPA concentration, the ultrasound delivery parameters were adjusted to maximize the efficacy of sonothrombolysis of the clots. The efficacy of sonothrombolysis was assessed by determining the % clot mass loss per minute within the flow chamber. The ultrasound delivery parameters that were adjusted in this experiment included pulsed ultrasound intensity (0.1-2.0 W/cm2), ultrasound frequency (0.7-4 MHz), and duty factor (0.05-100%).
Once the ultrasound delivery parameters were established for each tPA concentration, uniformly-sized MBs having diameters ranging from about […] were then added to the flow chamber; the concentration and elasticity of the MBs were adjusted while reducing tPA in order to maintain the initial % clot mass loss per minute. […]

With `O=C1CCCCCCCCCCCCCCO1` [CPDL, cyclopentadecanolide] the “increase of efficacy of sonothrombolysis (% clot mass loss per minute)” value was “six-fold”.

Reference: patent US20130331738A1, “COMPOSITIONS AND METHODS FOR POTENTIATING SONOTHROMBOLYSIS” (Board of Trustees University of Arkansas, priority 2012, published 2013)
